Assay results published in patent publication US10344019B2 (priority 2010, dated 2019).
pEC50: −log10 of the molar value. Like-named read-outs stand apart in the source and are kept apart here.

Legend:
Format in all cases: cell-based
[1] = test system: HCV 3a RLuc cells (NS5A chimeric genotype 1b Con1 replicon with consensus genotype 3a NS5A gene); experiment: microbe, parasite or virus in culture
Procedure, shortened: (§1)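 Replicon cells stably carrying the listed RLuc-encoding dicistronic replicons were seeded and treated with DMSO serial dilutions of compound (10 mM stocks) diluted into culture medium. After 72 h, cells were lysed and Renilla luciferase activity measured. EC50 was derived by non-linear regression.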

[2] = test system: HCV 1b RLuc cells (dicistronic genotype 1b Con1 replicon, RLuc reporter); experiment: microbe, parasite or virus in culture; settings: Hepatitis C virus, read-out: 1b (nM)
Procedure, shortened: (§2)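 Renilla luciferase HCV replicon cells: dicistronic 1b Con1, 1a H77 or 2a JFH-1 replicons, or a JFH-1 chimera carrying J6 NS5A (M31 present). Compound in DMSO serial dilutions, 72 h incubation, then lysis and luciferase read. EC50 by non-linear regression.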

[3] = test system: HCV 4a Rluc cells (NS5A chimeric genotype 1b Con1 replicon with genotype 4a NS5A gene); experiment: microbe, parasite or virus in culture; settings: Hepatitis C virus, read-out: 4a
Procedure, shortened: as §1

[4] = test system: HCV 2a JFH-1 Rluc cells (dicistronic genotype 2a JFH-1 replicon, RLuc reporter); experiment: microbe, parasite or virus in culture; settings: Hepatitis C virus, read-out: 2a JFH
Procedure, shortened: as §2

[5] = test system: HCV 1a RLuc cells (dicistronic genotype 1a H77 replicon, RLuc reporter); experiment: microbe, parasite or virus in culture; settings: Hepatitis C virus, read-out: 1a
Procedure, shortened: as §2

[6] = test system: HCV 2b Rluc cells (NS5A chimeric genotype 2a JFH-1 replicon with genotype 2b MD2b-1 NS5A gene, M31 present); experiment: microbe, parasite or virus in culture; settings: Hepatitis C virus, read-out: 2b
Procedure, shortened: as §1

[7] = test system: HCV 2a Rluc cells (NS5A chimeric genotype 2a JFH-1 replicon with genotype 2a J6 strain NS5A gene, M31 present); experiment: HCV replicon reporter assay, genotype 2a J6 (M31 present); settings: Hepatitis C virus, read-out: 2a J6
Procedure, shortened: as §2

[8] = Hepatitis C virus, read-out: 3a, genotype 3a NS5A chimeric replicon
[9] = genotype 2a JFH-1 RLuc replicon
[10] = Hepatitis C virus, read-out: 3a, genotype 3a replicon
[11] = genotype 2a JFH-1 replicon, RLuc reporter
[12] = genotype 1a H77 replicon, RLuc reporter

| Structure (SMILES) | pEC50 [3] | pEC50 [6] | pEC50 [7] | EC50 [2] [nM] | pEC50 [1, 10] | pEC50 ([4]; genotype 2a JFH-1 replicon) | pEC50 ([5]; genotype 1a replicon) | also measured |
| --- | --- | --- | --- | --- | --- | --- | --- | --- |
| COC(=O)N[C@H](C(=O)N1CCC[C@H]1c1ncc(-c2ccc3c(c2)COc2c-3ccc3cc(-c4cnc([C@@H]5CCCN5C(=O)[C@H](NC(=O)OC)c5ccccc5)[nH]4)ccc23)[nH]1)C(C)C [Example 2] | 9.00 to 12.00 | < 7.36 | < 7.36 |  |  |  |  | pEC50 ([1]; Hepatitis C virus, read-out: 3a, Table 1, genotype 3a NS5A chimeric replicon): 9.00 to 12.00; EC50 ([2]; 72 h): 0.005 nM; pEC50 ([4]; 72 h, Table 1, genotype 2a JFH-1 replicon, 72 hours): 9.00 to 12.00; pEC50 ([5]; 72 h, Table 1, genotype 1a H77 replicon, 72 hours): 9.00 to 12.00 |
| COC[C@H]1C[C@@H](c2ncc(-c3ccc(-c4ccc(-c5cnc([C@@H]6CC[C@H](C)N6C(=O)[C@@H](NC(=O)OC)C(C)C)[nH]5)cc4)cc3)[nH]2)N(C(=O)[C@H](NC(=O)C2CC2)c2ccccc2)C1 [Example 591] | 9.00 to 12.00 | 9.00 to 12.00 | 9.00 to 12.00 | 0.016 |  |  |  | pEC50 [1, 8]: 9.00 to 12.00; pEC50 [4, 9]: 9.00 to 12.00; pEC50 ([5]; genotype 1a H77 RLuc replicon): 9.00 to 12.00 |
| O=C(N[C@@H](C(=O)N1CCC[C@H]1c1ncc(-c2cc3c4c(c2)OCc2cc(-c5cnc([C@@H]6CCCN6C(=O)[C@H](NC(=O)c6cncnc6)c6ccccc6)[nH]5)cc(c2-4)OC3)[nH]1)c1ccccc1)c1cncnc1 [Example 492] | 9.00 to 12.00 | 7.36 to 9.00 | < 7.36 | 0.898 |  |  |  | pEC50 [1, 8]: 9.00 to 12.00; pEC50 [4, 9]: 9.00 to 12.00; pEC50 ([5]; genotype 1a H77 RLuc replicon): 7.36 to 9.00 |
| COC(=O)N[C@H](C(=O)N1CCC[C@H]1c1nc2ccc3cc(-c4ccc5c(ccc6nc([C@@H]7C[C@H](C#N)CN7C(=O)[C@@H](NC(=O)OC)C(C)C)[nH]c65)c4)ccc3c2[nH]1)C(C)C [Example 416] | 9.00 to 12.00 | 7.36 to 9.00 | 9.00 to 12.00 | 0.043 | 9.00 to 12.00 | 9.00 to 12.00 | 9.00 to 12.00 |  |
| CC[C@H](C)[C@H](NC(=O)OC)C(=O)N1CCC[C@H]1c1nc2ccc3cc(-c4ccc5c(ccc6nc([C@@H]7C[C@H](COC)CN7C(=O)[C@H](NC(=O)OC)c7ccccc7)[nH]c65)c4)ccc3c2[nH]1 [Example 509] | 9.00 to 12.00 | 9.00 to 12.00 | 9.00 to 12.00 | 0.028 |  |  |  | pEC50 [1, 8]: 9.00 to 12.00; pEC50 [4, 9]: 9.00 to 12.00; pEC50 ([5]; genotype 1a H77 RLuc replicon): 9.00 to 12.00 |
| COC(=O)N[C@H](C(=O)N1CCC[C@H]1c1ncc(-c2ccc3cc(-c4ccc5c(c4)CCc4nc([C@@H]6CCCN6C(=O)[C@@H](NC(=O)OC)C6CCOCC6)[nH]c4-5)ccc3c2)[nH]1)C(C)C [Example 198] | 9.00 to 12.00 | < 7.36 | < 7.36 | 0.018 |  |  |  | pEC50 ([1]; read-out: 3a, genotype 3a NS5A chimeric 1b Con1 replicon): 8.30 to 9.00; pEC50 [4, 11]: 9.00 to 12.00; pEC50 [5, 12]: 9.00 to 12.00 |
| COC(=O)N[C@H](C(=O)N1CC2(C[C@H]1c1nc3ccc4cc(-c5ccc6c(c5)CCc5nc(C7CCCN7C(=O)[C@H](NC(=O)OC)c7ccccc7)[nH]c5-6)ccc4c3[nH]1)OCCO2)C(C)C (stereo partly shown) [Example 365] | 9.00 to 12.00 | 9.00 to 12.00 | 9.00 to 12.00 | 0.11 | 9.00 to 12.00 | 9.00 to 12.00 | 9.00 to 12.00 |  |
| CC(=O)N[C@@H](C(=O)N1CCC[C@H]1c1ncc(-c2cc3c4c(c2)OCc2cc(-c5cnc([C@@H]6CCCN6C(=O)[C@H](NC(C)=O)c6ccccc6)[nH]5)cc(c2-4)OC3)[nH]1)c1ccccc1 [Example 419] | 9.00 to 12.00 | 9.00 to 12.00 | 9.00 to 12.00 | 0.786 | 9.00 to 12.00 | 9.00 to 12.00 | 7.36 to 9.00 |  |
| COC(=O)N[C@H](C(=O)N[C@@H](C(=O)N1CCC[C@H]1c1ncc(-c2cc3c4c(c2)OCc2cc(-c5cnc([C@@H]6CCCN6C(=O)[C@H](NC(=O)[C@@H](NC(=O)OC)C(C)C)c6ccccc6)[nH]5)cc(c2-4)OC3)[nH]1)c1ccccc1)C(C)C [Example 483] | 9.00 to 12.00 | 9.00 to 12.00 | < 7.36 | 0.814 | 9.00 to 12.00 | 9.00 to 12.00 | 7.36 to 9.00 |  |
| COC(=O)N[C@H](C(=O)N1CCC[C@H]1c1nc2ccc3cc(-c4ccc5c(ccc6nc([C@@H]7C[C@@H]8CCC[C@@H]8N7C(=O)[C@@H](NC(=O)OC)C(C)C)[nH]c65)c4)ccc3c2[nH]1)C(C)C [Example 428] | 9.00 to 12.00 | 7.36 to 9.00 | 9.00 to 12.00 | 0.011 | 9.00 to 12.00 | 9.00 to 12.00 | 9.00 to 12.00 |  |
| CN(C)C(=O)N[C@@H](C(=O)N1CCC[C@H]1c1ncc(-c2cc3c4c(c2)OCc2cc(-c5cnc([C@@H]6CCCN6C(=O)[C@H](NC(=O)N(C)C)c6ccccc6)[nH]5)cc(c2-4)OC3)[nH]1)c1ccccc1 [Example 431] | 9.00 to 12.00 | 9.00 to 12.00 | 9.00 to 12.00 | 0.436 | 9.00 to 12.00 | 9.00 to 12.00 | 9.00 to 12.00 |  |
| COC(=O)N[C@H](C(=O)N1CCC[C@H]1c1ncc(-c2ccc(-c3ccc4c(ccc5nc([C@@H]6[C@H]7CC[C@H](C7)N6C(=O)[C@H](NC(=O)OC)c6ccccc6)[nH]c54)c3)cc2)[nH]1)C(C)C [Example 410] | 9.00 to 12.00 | < 7.36 | 7.36 to 9.00 | 0.018 | 9.00 to 12.00 | 9.00 to 12.00 | 9.00 to 12.00 |  |
| COC(=O)N[C@@H](C(=O)N1C[C@@H](C)C[C@H]1c1ncc(-c2cc3c4c(c2)OCc2cc(-c5cnc([C@@H]6C[C@H](C)CN6C(=O)[C@H](NC(=O)OC)c6ccccc6)[nH]5)cc(c2-4)OC3)[nH]1)c1ccccc1 [Example 505] | 9.00 to 12.00 | 9.00 to 12.00 | 9.00 to 12.00 | 0.019 |  |  |  | pEC50 [1, 8]: 9.00 to 12.00; pEC50 [4, 9]: 9.00 to 12.00; pEC50 ([5]; genotype 1a H77 RLuc replicon): 9.00 to 12.00 |
| O=C(N[C@@H](C(=O)N1CCC[C@H]1c1ncc(-c2cc3c4c(c2)OCc2cc(-c5cnc([C@@H]6CCCN6C(=O)[C@H](NC(=O)C6CCCC6)c6ccccc6)[nH]5)cc(c2-4)OC3)[nH]1)c1ccccc1)C1CCCC1 [Example 489] | 9.00 to 12.00 | 9.00 to 12.00 | 9.00 to 12.00 | 0.048 |  |  |  | pEC50 [1, 8]: 9.00 to 12.00; pEC50 [4, 9]: 9.00 to 12.00; pEC50 ([5]; genotype 1a H77 RLuc replicon): 9.00 to 12.00 |
| COC(=O)N[C@H](C(=O)N1CCC[C@H]1c1nc2ccc3c(F)c(-c4ccc5c(ccc6nc([C@@H]7CCCN7C(=O)[C@@H](NC(=O)OC)C(C)C)[nH]c65)c4F)ccc3c2[nH]1)C(C)C [Example 457] | 9.00 to 12.00 | < 7.36 | < 7.36 | 0.009 | 9.00 to 12.00 | 9.00 to 12.00 | 9.00 to 12.00 |  |
| COC(=O)N[C@H](C(=O)N1CCC[C@H]1c1nc2ccc3cc(-c4ccc5c(ccc6nc([C@@H]7[C@H]8CC[C@H](C8)N7C(=O)[C@@H](NC(=O)OC)C7CCOCC7)[nH]c65)c4)ccc3c2[nH]1)C(C)C [Example 95] | 9.00 to 12.00 | 7.36 to 9.00 | 9.00 to 12.00 |  |  |  |  | pEC50 ([1]; Hepatitis C virus, read-out: 3a, Table 2, genotype 3a NS5A chimeric replicon): 9.00 to 12.00; EC50 ([2]; 72 h): 0.028 nM; pEC50 ([4]; 72 h, Table 2, genotype 2a JFH-1 replicon, 72 hours): 9.00 to 12.00; pEC50 ([5]; 72 h, Table 2, genotype 1a H77 replicon, 72 hours): 9.00 to 12.00 |
| O=C(N[C@@H](C(=O)N1CCC[C@H]1c1ncc(-c2cc3c4c(c2)OCc2cc(-c5cnc([C@@H]6CCCN6C(=O)[C@H](NC(=O)C6CC6)c6ccccc6)[nH]5)cc(c2-4)OC3)[nH]1)c1ccccc1)C1CC1 [Example 443] | 9.00 to 12.00 | 9.00 to 12.00 | 9.00 to 12.00 | 0.167 | 9.00 to 12.00 | 9.00 to 12.00 | 9.00 to 12.00 |  |
| COC(=O)N[C@H](C(=O)N1CCC[C@H]1c1ncc(-c2ccc3c(ccc4cc(-c5cnc([C@@H]6CCCN6C(=O)[C@@H](NC(=O)OC)C(C)C)[nH]5)ccc43)c2)[nH]1)C(C)C [Example 282] | 9.00 to 12.00 | < 7.36 | < 7.36 | 0.007 |  |  |  | pEC50 ([1]; Hepatitis C virus, read-out: 3a, genotype 3a NS5A chimeric 1b Con1 replicon): 9.00 to 12.00; pEC50 [4, 11]: 9.00 to 12.00; pEC50 [5, 12]: 9.00 to 12.00 |
| COCCOC(=O)N[C@@H](C(=O)N1CCC[C@H]1c1ncc(-c2cc3c4c(c2)OCc2cc(-c5cnc([C@@H]6CCCN6C(=O)[C@H](NC(=O)OCCOC)c6ccccc6)[nH]5)cc(c2-4)OC3)[nH]1)c1ccccc1 [Example 448] | 9.00 to 12.00 | 9.00 to 12.00 | 7.36 to 9.00 | 0.459 | 9.00 to 12.00 | 9.00 to 12.00 | 9.00 to 12.00 |  |
